Data on one compound can be found in BindingDB's records for patent US20260022118 (University of Texas System, 2026).

The target of this assay is GTPase NRas [G12D,C118S] (Homo sapiens, UniProt P01111, C118S/G12D). Put plainly: NRas G12D Surface Plasmon Resonance (SPR) Binding Assay. As for the experimental part:
The assay was run at 25° C. with a data collection rate of 10 Hz. All samples were flowed over both a reference surface and an active surface. Samples were injected for 30 s, with a dissociation time length of 120 s, at a flow rate of 100 μL/min and followed by an extra wash with 50% DMSO and a carry-over control injected at 40 μL/min for 30 s. Ten startup cycles were performed at the beginning of the assay. Solvent correction samples were injected once in the middle of the assay, and once at the end. A control sample of 10 μM control compound was injected between two negative control injections (1.0× running buffer containing 3% DMSO) every thirty cycles, to periodically assess NRAS surface stability. Assay was allowed to run for approximately 20-24 hours due to loss of activity of the protein surface over time. Data was analyzed using the Biacore™ S200 Evaluation Software, and all data was fit using a 1:1 kinetic binding model or steady-state fitting, as appropriate.

Structures are written as SMILES. pKd: −log10 of the molar value.

Sequence of GTPase NRas [G12D,C118S] (P01111 whole entry G12D/C118S, looked up): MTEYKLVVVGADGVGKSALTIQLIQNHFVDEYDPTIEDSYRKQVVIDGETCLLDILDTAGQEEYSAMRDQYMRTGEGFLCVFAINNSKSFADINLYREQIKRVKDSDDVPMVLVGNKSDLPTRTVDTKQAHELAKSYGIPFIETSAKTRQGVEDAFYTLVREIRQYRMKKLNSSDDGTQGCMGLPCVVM

Take `C#Cc1c(F)ccc2cc(O)cc(-c3nc(C(C)=O)c4c([C@H]5[C@@H]6CNC[C@@H]65)nn(C5CC5)c4c3F)c12` [US20260022118, Example 84]: the pKd (usually the Kd on a negative log10 scale, so that one unit is a factor of ten) was 6.92.
